Columns and labels:
OX1 = molecular target: T1, OX1 (Homo sapiens, UniProt O43613); assay: Orexin receptor cell-based functional assay, [Ca2+]i by FLIPR, CHO-OX1 cells; conditions: FLIPR calcium, antagonism of EC90 of [OX], read-out: OXI, IC50
T1 construct: expressed in transfected cells; host or cells: CHO (CHO-OX1)
T1 sequence (O43613 1-425): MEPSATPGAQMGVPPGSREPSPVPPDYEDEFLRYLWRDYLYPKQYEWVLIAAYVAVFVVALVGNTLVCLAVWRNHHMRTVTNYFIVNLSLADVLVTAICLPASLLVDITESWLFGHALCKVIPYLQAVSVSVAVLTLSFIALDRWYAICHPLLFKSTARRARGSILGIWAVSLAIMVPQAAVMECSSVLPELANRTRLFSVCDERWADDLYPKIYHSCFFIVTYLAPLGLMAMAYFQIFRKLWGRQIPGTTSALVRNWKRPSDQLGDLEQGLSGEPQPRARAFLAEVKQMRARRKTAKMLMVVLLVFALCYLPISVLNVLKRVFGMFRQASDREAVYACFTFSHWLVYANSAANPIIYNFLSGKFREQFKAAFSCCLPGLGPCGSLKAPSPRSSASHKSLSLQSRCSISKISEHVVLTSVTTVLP

[1] = Metabolic stability and intrinsic clearance in rat hepatocytes; format: in vitro ADME; conditions: cryopreserved rat hepatocytes (suspension), 1 uM compound, 37 C, read-out: rHeps CLint
Protocol: Stock solutions of compounds and control compounds were prepared in 10 mM in appropriate solvent, such as DMSO. L-15 medium was placed in a 37° C. water bath and allowed to warm for at least 15 minutes prior to use. A quenching plate was prepared by adding 80 μL of acetonitrile to each well of a 96-well plate. In a new 96-well plate, the 10 mM stock solution of test compounds and control compounds were diluted to 100 μM by combining 198 μL of acetonitrile and 2 μL of the 10 mM stock. A vial of cryopreserved rat hepatocytes were removed from storage and maintained at cryogenic temperatures until thawing. The cells were thawed as quickly as possible, in a 37° C. water bath under gentle shaking. The vials were kept in the water bath until all ice crystals have dissolved and are no longer visible. After the thawing was completed, the vials were sprayed with 70% ethanol and transferred to a biosafety cabinet. […]
Cells were then counted with Cellometer® Vision. […] Counted cells were then diluted with incubation medium to a working cell density of 1.0×10^6 viable cells/mL. […]
All calculations were carried out using Microsoft Excel. Peak areas were determined from extracted ion chromatograms. in vitro half-life (t½) of parent compound was determined by regression analysis of the Ln percent parent disappearance vs. time curve.

Cc1nc(C(=O)N2CC(F)(F)C[C@@H](C)[C@H]2CNc2ccc(C(F)(F)F)cn2)c(-c2ccc(F)cc2)s1 [Compound 185, ((2S,3R)-5,5-difluoro-3-methyl-2-(((5-(trifluoromethyl)pyridin-2-yl)amino)methyl)piperidin-1-yl)(5-(4-fluorophenyl)-2-methylthiazol-4-yl)methanone]
IC50 (OX1): 2 nM
hepatocyte CLint at 1 µM [1]: 107 µL/min/1e6 cells

C[C@@H]1CC(F)(F)CN(C(=O)c2nn(C)cc2-c2ccc(Cl)cc2)[C@@H]1CNc1cnc(C(F)(F)F)cn1 [Compound 129, (4-(4-chlorophenyl)-1-methyl-1H-pyrazol-3-yl)((2S,3R)-5,5-difluoro-3-methyl-2-(((5-(trifluoromethyl)pyrazin-2-yl)amino)methyl)piperidin-1-yl)methanone]
IC50 (OX1): 4 nM
hepatocyte CLint at 1 µM [1]: 3.8 µL/min/1e6 cells

— patent US12084437B2, “Halo-substituted piperidines as orexin receptor modulators” (AstraZeneca AB, priority 2016, dated 2024)
